Data published in patent publication US20250367100A1, “GINSENOSIDE COMPOSITION, DAILY CHEMICAL AND USE” (INCIPIRIT TECH (GUANGZHOU) CO., LTD., priority 2023, published 2025).
Counter-ions that a name gives are not always drawn.

Test system: human epidermal keratinocytes
Assay: Proliferation of epidermal keratinocytes in a co-culture system of dermal papilla cells and epidermal keratinocytes
Assay type: cell-based
Details: 0.2 μg/ml, 2 μg/ml, 20 μg/ml, 200 μg/ml, FIG. 5
Experimental: Add 500 μl of human epidermal keratinocytes (30,000 cells/ml) to each well of a 24-well MULTIWELL plate, then add a 1.0 μm of cell culture insert, and culture for 1 day. The 1.0 μm of cell culture insert already contains 300 μl of dermal papilla cells (20,000 cells/ml). Subsequently, add 1 μl/well each of the ginseng extracts 1-7, the positive control minoxidil sulfate, and the blank control (DMSO), and continue culturing for 3 days. Remove the 1.0 μm of cell culture insert, add 50 μl/well of Cell Counting Kit-8 (Dojindo Molecular Technologies, Inc.), continue culturing for 2 hours, and determine cell number using a microplate reader (450 nm, Mix 0).

## Nc1cc(N2CCCCC2)nc(N)[n+]1OS(=O)(=O)[O-] [minoxidil sulfate]
  proliferation of keratinocytes in co-culture system: no effect in promoting the proliferation of keratinocyte
